Reference: the NIST ThermoML archive (doi:10.1016/j.fluid.2009.08.023)
Several values for one entry are separate records, joined by “and”; a condition that tells them apart may be missing. Identical values can stand only once.

Conditions: Liquid, Closed cell (Static) method

FC(C(F)(F)F)C(F)(F)F [1,1,1,2,3,3,3-heptafluoropropane]
Conditions | vapor or sublimation pressure [kPa]
233.8 K | 33.41
235.53 K | 36.68
237.5 K | 40.7
237.93 K | 41.62
239.21 K | 44.45
241.12 K | 48.94
243.06 K | 53.89
245.07 K | 59.45
247.09 K | 65.47
247.15 K | 65.66
249.1 K | 71.95
251.21 K | 79.25
253.11 K | 86.34
255.19 K | 94.66
257.15 K | 103.11
257.2 K | 103.29
258.2 K | 107.8
259.06 K | 111.83
261.03 K | 121.45
262.97 K | 131.55
265.23 K | 144.08
267.13 K | 155.39
269.15 K | 168.13
271.12 K | 181.25
271.9 K | 186.72
273.22 K | 196.14
275.23 K | 211.33
277.22 K | 227.17
277.55 K | 229.88
279.11 K | 243.04
281.21 K | 261.71
283.19 K | 280.28
283.23 K | 280.58
285.14 K | 299.44
287.16 K | 320.43
287.95 K | 329.02
289.06 K | 341.15
291.11 K | 364.72
292.83 K | 385.4
293.23 K | 390.27
294.98 K | 412.44
297.07 K | 440.12
297.75 K | 449.31
299.11 K | 468.35
301.1 K | 497.27
303.22 K | 529.51
306.1 K | 575.88
308.04 K | 608.64
318.59 K | 813.28
320.55 K | 856.24
321.06 K | 867.63
328.3 K | 1043.7
331.45 K | 1127.8
338.37 K | 1331.1
341.94 K | 1446
348.87 K | 1690.7
352.27 K | 1822.1
359.69 K | 2136.3
360.92 K | 2192.1
371.37 K | 2720.8
371.43 K | 2723.8

FC(F)(F)CC(F)(F)F [1,1,1,3,3,3-hexafluoropropane]
Conditions | vapor or sublimation pressure
239.02 K | 20.71 kPa
240.1 K | 21.95 kPa
242.86 K | 25.66 kPa
243.17 K | 26.02 kPa
243.26 K | 26.19 kPa
244.9 K | 28.6 kPa
247.01 K | 31.96 kPa
249.11 K | 35.66 kPa
249.3 K | 35.98 kPa
251.19 K | 39.62 kPa
253.11 K | 43.66 kPa
253.18 K | 43.74 kPa
253.29 K | 43.96 kPa
253.33 K | 44.11 kPa
255.21 K | 48.33 kPa
257.22 K | 53.21 kPa
259.25 K | 58.54 kPa
261.09 K | 63.74 kPa
262.94 K | 69.34 kPa
263.1 K | 69.79 kPa
263.2 K | 70.19 kPa
264.08 K | 72.93 kPa
264.88 K | 75.59 kPa
266.95 K | 82.8 kPa
269.03 K | 90.55 kPa
271.1 K | 98.85 kPa
273.22 K | 107.93 kPa
273.31 K | 108.24 kPa
273.32 K | 108.34 kPa
273.4 K | 108.71 kPa
275.23 K | 117.09 kPa
277.32 K | 127.3 kPa
279.29 K | 137.56 kPa
280.96 K | 146.78 kPa
283.24 K | 160.12 kPa
283.27 K | 160.26 kPa
285.26 K | 172.59 kPa
287.23 K | 185.57 kPa
289.23 K | 199.5 kPa
291.2 K | 214 kPa
293.16 K | 229.27 kPa
293.29 K | 230.28 kPa
294.32 K | 238.65 kPa
295.26 K | 246.45 kPa
297.25 K | 263.72 kPa
299.35 K | 282.86 kPa
301.4 K | 302.67 kPa
303.06 K | 319.32 kPa
303.24 K | 321.23 kPa
303.3 K | 321.84 kPa
303.55 K | 324.31 kPa
305.21 K | 342.11 kPa
306.13 K | 352.04 kPa
307.21 K | 364.17 kPa
307.88 K | 372.01 kPa
308.18 K | 375.53 kPa
308.2 K | 375.7 kPa
309.52 K | 391.11 kPa
311.21 K | 412.03 kPa
311.29 K | 412.84 kPa
312.22 K | 424.67 kPa
313.16 K | 436.99 kPa
313.29 K | 438.48 kPa
313.85 K | 445.61 kPa
315.31 K | 465.57 kPa
317.16 K | 491.51 kPa
319.27 K | 522.37 kPa
320.93 K | 547.63 kPa
321.21 K | 552.1 kPa
323.44 K | 587.43 kPa
325.87 K | 628.19 kPa and 628.25 kPa
327.21 K | 651.86 kPa
328.24 K | 669.95 kPa
329.19 K | 687.47 kPa
330.27 K | 707.58 kPa
330.43 K | 710.54 kPa
330.87 K | 718.92 kPa
332.2 K | 744.56 kPa
332.59 K | 752.25 kPa
335.42 K | 809.53 kPa
337.41 K | 851.82 kPa
337.88 K | 862 kPa
339.87 K | 906.21 kPa
341.92 K | 953.67 kPa
343.98 K | 1002.9 kPa
345.61 K | 1043.5 kPa
346.25 K | 1059.7 kPa
348.23 K | 1111.2 kPa
350.37 K | 1168.7 kPa
352.05 K | 1215.7 kPa
352.45 K | 1226.9 kPa
353.22 K | 1249.3 kPa
355.64 K | 1320.5 kPa
356.7 K | 1352.6 kPa
359.21 K | 1431.4 kPa
361.34 K | 1500.8 kPa
363.46 K | 1572.3 kPa
365.6 K | 1647.1 kPa
367.45 K | 1714.4 kPa
369.49 K | 1790.5 kPa
371.35 K | 1862.2 kPa
372.12 K | 1892.8 kPa
373.44 K | 1945.6 kPa
373.47 K | 1946.8 kPa
374.62 K | 1994.1 kPa
375.47 K | 2029.4 kPa
377.6 K | 2120.2 kPa
378.14 K | 2144.1 kPa
379.74 K | 2214.5 kPa
381.83 K | 2310.2 kPa
383.87 K | 2406.7 kPa
385.8 K | 2500.8 kPa
387.8 K | 2601.6 kPa
390.19 K | 2726.9 kPa
392.05 K | 2828.1 kPa
393.47 K | 2907.6 kPa
393.73 K | 2922.2 kPa
394.04 K | 2940 kPa
396.05 K | 3057 kPa
396.52 K | 3085.8 kPa
397.97 K | 3174.2 kPa

FC(F)CC(F)(F)F [1,1,1,3,3-pentafluoropropane]
Conditions | vapor or sublimation pressure [kPa]
235.65 K | 6.9
237.61 K | 7.83
239.61 K | 8.89
241.65 K | 10.09
243.57 K | 11.33
245.57 K | 12.77
247.67 K | 14.43
249.72 K | 16.22
251.16 K | 17.6
251.64 K | 18.05
252.68 K | 19.12
253.7 K | 20.23
255.59 K | 22.39
256.66 K | 23.69
257.56 K | 24.84
259.6 K | 27.62
261.27 K | 30.07
261.47 K | 30.38
261.62 K | 30.62
263.88 K | 34.3
265.69 K | 37.48
266.4 K | 38.77
267.21 K | 40.32
267.51 K | 40.9
267.65 K | 41.19
269.61 K | 45.21
271.59 K | 49.58
271.73 K | 49.9
272.61 K | 51.93
273.73 K | 54.67
275.73 K | 59.81
277.71 K | 65.28
277.74 K | 65.39
279.71 K | 71.23
279.72 K | 71.27
281.62 K | 77.24
281.74 K | 77.66
282.67 K | 80.74
283.01 K | 81.9
283.62 K | 84.01
285.6 K | 91.2
287.57 K | 98.81
287.58 K | 98.82
287.63 K | 99.06
289.64 K | 107.32
291.68 K | 116.25
292.11 K | 118.22
292.56 K | 120.29
293.02 K | 122.46
294.05 K | 127.38
296.05 K | 137.42
297.68 K | 146.08
298.07 K | 148.16
299.99 K | 158.97
302.22 K | 172.36
302.61 K | 174.75
302.82 K | 176.04
306.06 K | 197.31
308.24 K | 212.7
312.05 K | 241.93
314.67 K | 263.68
316.8 K | 282.34
318.62 K | 299.22
321.02 K | 322.69
324.94 K | 363.8
326.92 K | 386.02
328.21 K | 401
328.88 K | 409.17
332.34 K | 452.27
334.54 K | 481.58
335.06 K | 488.66
337.05 K | 516.55
337.07 K | 516.91
337.71 K | 526.04
339.46 K | 552.03
340.65 K | 570.3
340.66 K | 570.45
343.11 K | 609.1
344.74 K | 636.25
345.11 K | 642.16
347.04 K | 675.54
348.61 K | 703.69
349.13 K | 713.08
349.32 K | 716.41
351.61 K | 759.56
363.48 K | 1014
365.4 K | 1060.6
368.8 K | 1147.1
371.52 K | 1219.9
373.61 K | 1278.4
374.58 K | 1306
375.9 K | 1344.6
378.5 K | 1422.7
380.59 K | 1487.9
380.96 K | 1500
383.23 K | 1573.6
386.07 K | 1669.5
388.53 K | 1757
391.15 K | 1853.4
393.55 K | 1945
394.58 K | 1985.6
396.2 K | 2050.7
398.69 K | 2153.7
401.04 K | 2254.6
402.98 K | 2340.8
404.3 K | 2400.9
404.32 K | 2401.7
405.05 K | 2435.4
407.08 K | 2531.5
408.53 K | 2601.7
409.04 K | 2626.5
409.43 K | 2646
411.13 K | 2731.4
413.25 K | 2841.1
414.11 K | 2886.6
414.65 K | 2916.1
415.27 K | 2949.2
417.28 K | 3060.7
419.31 K | 3176.2
420.09 K | 3221.7
422.02 K | 3337.1
422.45 K | 3363
424.01 K | 3459.9
424.32 K | 3479.2
424.52 K | 3491.6
426.47 K | 3617.9
427.08 K | 3658.3
